Values quoted from earlier work as cited in patent US11318148B2, “Preservative-free treprostinil devices” (SteadyMed, Ltd., priority 2014, dated 2022).

Assays:
[1] = in vivo
[2] = has to be kept on ice during administration

In the case of `CCCCC[C@H](O)/C=C/[C@@H]1[C@H]2C/C(=C/CCCC(=O)O)O[C@H]2C[C@H]1O` [Flolan], the half-life [1] is given as 3 to 5 min and the “stability at room temperature” value [2] is given as “unstable at room temperature”.
